The results in this text go back to patent US9714249B2 (Novartis AG, priority 2013, dated 2017).

Broadly, the IC50 is the concentration at which inhibition is half-maximal. A lower IC50 goes with greater potency.

What all share (conditions): acetyl-histone H4 peptide
The target in one assay is BRD3 (His-Brd3(20-477)) (Homo sapiens (Human), UniProt Q15059). Description: TR-FRET in-vitro binding assay for BRD3. The protocol:
(§1) All assays were performed in 384 well microtiter plates. Each assay plate contained 8-point serial dilutions for 40 test compounds, plus 16 high- and 16 low controls. Liquid handling and incubation steps were done on an Innovadyne Nanodrop Express equipped with a robotic arm (Thermo CatX, Perkin Elmer/Caliper Twister II) and an incubator (Liconic STX40, Thermo Cytomat 2C450). The assay plates were prepared by addition of 50 nl per well of compound solution in 90% DMSO HummingBird nanodispenser (Zinsser Analytic). The assay was started by stepwise addition of 4.5 μl per well of bromo domain protein (50 mM HEPES, pH 7.5, 0.005% Tween20, 0.1% BSA, 50 mM NaCl, 45 nM His-Brd2(60-472) or 45 nM His-Brd3(20-477) or 45 nM His-Brd4(44-477) all proteins produced in-house) and 4.5 μl per well of peptide solution (50 mM HEPES, pH 7.5, 0.005% Tween20, 0.1% BSA, 50 mM NaCl, 60 nM acetyl-histone H4 (AcK 5, 8, 12, 16) (Biosyntan GmbH)). Reactions were incubated at 30° C. for 35 minutes. Subsequently 4.5 μl per well detection mix (50 mM HEPES, pH 7.5, 0.005% Tween20, 0.1% BSA, 50 mM NaCl, 3 nM Eu-labeled anti-His6 antibody, 21 nM streptavidin-allophycocyanin) were added. After 35 minutes incubation at 30° C., plates were measured in a Perkin Elmer EnVision multilabel reader. Concentrations causing 50% inhibition (1050) values were determined from percent inhibition values at different compound concentrations by non-linear regression analysis.
(§2) Test compounds were dissolved in DMSO (10 mM) and transferred into 1.4 mL flat bottom or V-shaped Matrix tubes carrying a unique 2D matrix. The stock solutions were stored at […] if not used immediately. For the test procedure the vials were defrosted and identified by a scanner whereby a working sheet was generated that guided the subsequent working steps. Compound dilutions were made in 96 well plates. This format enabled the assay of maximally 40 individual test compounds at 8 concentrations (single points) including 4 reference compounds, if desired (known BET inhibitors from the prior art, for this and other assays of the type disclosed herein). The dilution protocol included the production of “pre-dilution plates”, “master plates” and “assay plates”.
(§3) Pre-dilution plates: 96 polypropylene well plates were used as pre-dilution plates. A total of 4 pre-dilution plates were prepared including 10 test compounds each on the plate positions A1-A10, one standard compound at A11 and one DMSO control at A12. All dilution steps were done on a HamiltonSTAR robot. Master plates: 30 μL of individual compound dilutions including standard compound and controls of the 4 “pre-dilution plates” were transferred into a 384 “master plate” including the following concentrations 10000, 3003, 1000, 300, 100, 30, 10 and 3 μM, respectively in 90% of DMSO. Assay plates: Identical “assay plates” were then prepared by pipetting 50 nL each of compound dilutions of the “master plates” into 384-well “assay plates” by means of a HummingBird 384-channel dispenser. These plates were used directly for the assay which was performed in a total volume of 13.55 μL. This led to a final compound concentration of 37, 11, 3.7, 1.1, 0.37, 0.11, 0.037 and 0.011 μM and a final DMSO concentration of 0.37% in the assay. Cell Growth Inhibition Assay
A general note: TR-FRET usually uses a lanthanide donor and a delayed reading to cut background.

The target in the next assay is BRD2 (His-Brd2(60-472)) (Homo sapiens (Human), UniProt P25440). The assay can be described thus: TR-FRET in-vitro binding assay for BRD2. The protocol: as §1, §2, §3
Assay [1] deals with CREBBP bromodomain (His-CREBBP (1081-1197)) (Homo sapiens (Human), UniProt Q92793). The assay can be described thus: AlphaScreen in-vitro binding assay for CREBBP. The protocol: In order to assess bromodomain selectivity, we set up a binding assay using the bromodomain encoded by the CREBBP gene. […] Reactions were incubated at 30° C. for 35 minutes. Subsequently 4.5 μl per well detection mix (50 mM HEPES, pH 7.5, 0.005% Tween20, 0.02% BSA, 150 mM NaCl, 45 μg/ml Ni-chelate acceptor beads, 45 μg/ml streptavidin-donor beads) (Perkin Elmer)) were added. After 60 minutes incubation at room temperature, plates were measured in a Perkin Elmer EnVision multilabel reader. IC50 values were determined from percent inhibition values at different compound concentrations by non-linear regression analysis.
as §2
Pre-dilution plates: 96 polypropylene well plates were used as pre-dilution plates. A total of 4 pre-dilution plates were prepared including 10 test compounds each on the plate positions A1-A10, one standard compound at A11 and one DMSO control at A12. All dilution steps were done on a HamiltonSTAR robot. […] These plates were used directly for the assay which was performed in a total volume of 13.55 μL. […] Cell Growth Inhibition Assay
On the technique in general: Alpha assays give light when donor and acceptor beads are brought close together.

Chain of BRD2 (His-Brd2(60-472)) (P25440 60-472, species assumed): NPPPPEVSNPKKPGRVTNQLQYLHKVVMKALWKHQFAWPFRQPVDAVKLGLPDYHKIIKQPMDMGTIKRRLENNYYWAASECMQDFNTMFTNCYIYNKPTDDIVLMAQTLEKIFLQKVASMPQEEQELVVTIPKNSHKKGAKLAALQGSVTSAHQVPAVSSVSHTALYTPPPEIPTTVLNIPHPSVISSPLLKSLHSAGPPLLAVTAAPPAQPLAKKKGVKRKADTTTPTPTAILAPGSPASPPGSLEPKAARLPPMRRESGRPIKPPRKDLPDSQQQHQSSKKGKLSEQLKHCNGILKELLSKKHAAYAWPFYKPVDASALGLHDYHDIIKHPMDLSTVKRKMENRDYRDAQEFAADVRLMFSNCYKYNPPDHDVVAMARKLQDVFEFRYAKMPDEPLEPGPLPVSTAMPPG
Chain of CREBBP bromodomain (His-CREBBP (1081-1197)) (Q92793 1081-1197): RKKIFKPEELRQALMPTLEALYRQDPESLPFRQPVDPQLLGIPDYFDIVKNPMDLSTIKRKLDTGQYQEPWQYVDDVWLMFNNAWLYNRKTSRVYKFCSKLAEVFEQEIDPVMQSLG
Chain of BRD3 (His-Brd3(20-477)) (Q15059 20-477, species assumed): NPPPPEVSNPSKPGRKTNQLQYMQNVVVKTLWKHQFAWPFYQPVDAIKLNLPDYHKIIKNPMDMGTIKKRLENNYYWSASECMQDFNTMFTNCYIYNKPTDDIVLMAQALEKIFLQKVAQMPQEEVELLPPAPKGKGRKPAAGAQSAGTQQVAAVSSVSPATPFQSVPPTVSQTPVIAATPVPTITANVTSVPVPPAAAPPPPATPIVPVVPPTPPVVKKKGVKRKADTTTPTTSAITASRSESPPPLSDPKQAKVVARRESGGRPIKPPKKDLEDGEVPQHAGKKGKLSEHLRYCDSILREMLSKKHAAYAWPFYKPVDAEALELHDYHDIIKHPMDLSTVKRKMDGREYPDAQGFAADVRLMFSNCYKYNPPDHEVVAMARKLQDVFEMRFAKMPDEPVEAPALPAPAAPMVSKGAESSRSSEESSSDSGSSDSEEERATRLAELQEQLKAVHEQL

Consider `CNC1=C(C(=N)C2CC2)C(=O)N(c2cc(C)c(=O)n(C)c2)[C@@H]1c1ccc(Cl)cc1` [Example 2], for which the IC50 at BRD3 (His-Brd3(20-477)) was determined as 20 nM; on BRD2 (His-Brd2(60-472)) it was 22 nM; in assay [1] it was 1200 nM.
For `Cc1nn(C)c2c1C(=O)N(c1cc(C)c(=O)n(C)c1)C2c1ccc(Cl)cc1` (stereo not shown) [Example 10, 6-(4-chlorophenyl)-5-(1,5-dimethyl-6-oxo-1,6-dihydropyridin-3-yl)-1,3-dimethyl-5,6-dihydropyrrolo[3,4-c]pyrazol-4(1H)-one], the 50% inhibitory concentration (IC50) at BRD3 (His-Brd3(20-477)) turned out to be 62 nM; at BRD2 (His-Brd2(60-472)), 84 nM; in assay [1] it was 3000 nM.
The corresponding values for `Cc1cc(N2C(=O)c3c(C4CC4)n[nH]c3[C@H]2c2ccc(Cl)cc2)cn(C)c1=O` [Example 24, (R)-6-(4-chlorophenyl)-3-cyclopropyl-5-(1,5-dimethyl-6-oxo-1,6-dihydropyridin-3-yl)-5,6-dihydropyrrolo[3,4-c]pyrazol-4(1H)-one] are 47 nM, 74 nM and 1700 nM.
As to `COc1ncccc1-n1nc2c(c1C)C(=O)N(c1cc(Cl)c(=O)n(C)c1)C2c1ccc(Cl)cc1` (stereo not shown) [Example 7b, 5-(5-chloro-1-methyl-6-oxo-1,6-dihydropyridin-3-yl)-6-(4-chlorophenyl)-2-(2-methoxypyridin-3-yl)-3-methyl-5,6-dihydropyrrolo[3,4-c]pyrazol-4(2H)-one], the IC50 on BRD3 (His-Brd3(20-477)) turned out to be 24 nM; on BRD2 (His-Brd2(60-472)) it was 32 nM; in assay [1], 1900 nM.
The corresponding values for `Cc1cc(N2C(=O)c3c(C4CC4)nn(C)c3C2c2ccc(Cl)cc2)cn(C)c1=O` (stereo not shown) [Example 1, 6-(4-chlorophenyl)-3-cyclopropyl-5-(1,5-dimethyl-6-oxo-1,6-dihydropyridin-3-yl)-1-methyl-5,6-dihydropyrrolo[3,4-c]pyrazol-4(1H)-one] are 30 nM, 32 nM and 1400 nM.
`COCCn1nc(C2CC2)c2c1C(c1ccc(Cl)cc1)N(c1cc(C)c(=O)n(C)c1)C2=O` (stereo not shown) [Example 4, 6-(4-chlorophenyl)-3-cyclopropyl-5-(1,5-dimethyl-6-oxo-1,6-dihydropyridin-3-yl)-1-(2-methoxyethyl)-5,6-dihydropyrrolo[3,4-c]pyrazol-4(1H)-one]: the half-maximal inhibitory concentration (IC50) was 13 nM on BRD3 (His-Brd3(20-477)), 15 nM on BRD2 (His-Brd2(60-472)) and 3000 nM in assay [1].
On to `COc1ncccc1-n1nc(C)c2c1[C@@H](c1ccc(Cl)cc1)N(c1cc(C)c(=O)n(C)c1)C2=O` [Example 25, (R)-6-(4-chlorophenyl)-5-(1,5-dimethyl-6-oxo-1,6-dihydropyridin-3-yl)-1-(2-methoxypyridin-3-yl)-3-methyl-5,6-dihydropyrrolo[3,4-c]pyrazol-4(1H)-one], for which the IC50 turned out to be 64 nM at BRD3 (His-Brd3(20-477)), 130 nM on BRD2 (His-Brd2(60-472)) and 2000 nM in assay [1].
With `COc1ncc(-n2nc(C)c3c2C(c2ccc(Cl)cc2)N(c2cc(C)c(=O)n(C)c2)C3=O)cn1` (stereo not shown) [Example 21a, 6-(4-chlorophenyl)-5-(1,5-dimethyl-6-oxo-1,6-dihydropyridin-3-yl)-1-(2-methoxypyrimidin-5-yl)-3-methyl-5,6-dihydropyrrolo[3,4-c]pyrazol-4(1H)-one], the IC50 on BRD3 (His-Brd3(20-477)) was 52 nM; on BRD2 (His-Brd2(60-472)), 63 nM; in assay [1] it was over 11100 nM.
For the compound `COc1ncccc1-c1nn(C)c2c1C(=O)N(c1cc(C)c(=O)n(C)c1)[C@@H]2c1ccc(Cl)cc1` [Example 16, (R)-6-(4-chlorophenyl)-5-(1,5-dimethyl-6-oxo-1,6-dihydropyridin-3-yl)-3-(2-methoxypyridin-3-yl)-1-methyl-5,6-dihydropyrrolo[3,4-c]pyrazol-4(1H)-one], the IC50 at BRD3 (His-Brd3(20-477)) was 52 nM; at BRD2 (His-Brd2(60-472)), 48.5 nM; in assay [1], 545 nM.
In the case of `Cc1[nH]nc2c1C(=O)N(c1cc(Cl)c(=O)n(C)c1)C2c1ccc(Cl)cc1` (stereo not shown) [Example 6, 5-(5-chloro-1-methyl-6-oxo-1,6-dihydropyridin-3-yl)-6-(4-chlorophenyl)-3-methyl-5,6-dihydropyrrolo[3,4-c]pyrazol-4(2H)-one], the figures for the concentration for half-maximal inhibition (IC50) (on BRD3 (His-Brd3(20-477)); on BRD2 (His-Brd2(60-472)); in assay [1]) were 80 nM, 94 nM and 4100 nM, respectively.
With `COc1ncc(-n2nc(C)c3c2C(c2ccc(Cl)cc2)N(c2cc(Cl)c(=O)n(C)c2)C3=O)cn1` (stereo not shown) [Example 8a, 5-(5-chloro-1-methyl-6-oxo-1,6-dihydropyridin-3-yl)-6-(4-chlorophenyl)-1-(2-methoxypyrimidin-5-yl)-3-methyl-5,6-dihydropyrrolo[3,4-c]pyrazol-4(1H)-one], the IC50 on BRD3 (His-Brd3(20-477)) is 120 nM; at BRD2 (His-Brd2(60-472)), 120 nM; in assay [1] it was over 37000 nM.
As to `Cc1nn(C2CC2)c2c1C(=O)N(c1cc(C)c(=O)n(C)c1)C2c1ccc(Cl)cc1` (stereo not shown) [Example 11, 6-(4-chlorophenyl)-1-cyclopropyl-5-(1,5-dimethyl-6-oxo-1,6-dihydropyridin-3-yl)-3-methyl-5,6-dihydropyrrolo[3,4-c]pyrazol-4(1H)-one], the IC50 on BRD3 (His-Brd3(20-477)) came out at 34 nM; on BRD2 (His-Brd2(60-472)), 38 nM; in assay [1], 1900 nM.
As to `Cc1cc(N2C(=O)c3c(C4CC4)nn(-c4ccnn4C)c3[C@H]2c2ccc(Cl)cc2)cn(C)c1=O` [Example 22, (R)-6-(4-chlorophenyl)-3-cyclopropyl-5-(1,5-dimethyl-6-oxo-1,6-dihydropyridin-3-yl)-1-(1-methyl-1H-pyrazol-5-yl)-5,6-dihydropyrrolo[3,4-c]pyrazol-4(1H)-one], the half-maximal inhibitory concentration (IC50) amounted to 89 nM on BRD3 (His-Brd3(20-477)), 160 nM on BRD2 (His-Brd2(60-472)) and 2900 nM in assay [1].
For `Cc1cc(N2C(=O)c3c(C4CC4)nn(CCO)c3C2c2ccc(Cl)cc2)cn(C)c1=O` (stereo not shown) [Example 3, 6-(4-chlorophenyl)-3-cyclopropyl-5-(1,5-dimethyl-6-oxo-1,6-dihydropyridin-3-yl)-1-(2-hydroxyethyl)-5,6-dihydropyrrolo[3,4-c]pyrazol-4(1H)-one], the 50% inhibitory concentration (IC50) on BRD3 (His-Brd3(20-477)) is 34 nM; at BRD2 (His-Brd2(60-472)) it was 42 nM.
Turning to `Cc1nn(-c2cccnc2F)c2c1C(=O)N(c1cc(C)c(=O)n(C)c1)C2c1ccc(Cl)cc1` (stereo not shown) [Example 19, 6-(4-chlorophenyl)-5-(1,5-dimethyl-6-oxo-1,6-dihydropyridin-3-yl)-1-(2-fluoropyridin-3-yl)-3-methyl-5,6-dihydropyrrolo[3,4-c]pyrazol-4(1H)-one], the values for the IC50 (on BRD3 (His-Brd3(20-477)); at BRD2 (His-Brd2(60-472)); in assay [1]) were 73 nM, 80 nM and 3800 nM, respectively.
On to `COc1ccc(-n2nc(C)c3c2C(c2ccc(Cl)cc2)N(c2cc(C)c(=O)n(C)c2)C3=O)cn1` (stereo not shown) [Example 20b, 6-(4-chlorophenyl)-5-(1,5-dimethyl-6-oxo-1,6-dihydropyridin-3-yl)-1-(6-methoxypyridin-3-yl)-3-methyl-5,6-dihydropyrrolo[3,4-c]pyrazol-4(1H)-one], for which the 50% inhibitory concentration (IC50) on BRD3 (His-Brd3(20-477)) came out at 48 nM; at BRD2 (His-Brd2(60-472)), 49 nM.
